# Key:
# [1] = Growth inhibition of human FRDA primary patient fibroblasts after 48 hrs by calcein-AM-based cell viability assay; design: species or system Fibroblast; conditions: for GI50 at 48 h: FRDA primary patient fibroblasts
# [2] = Therapeutic index, ratio of LC50 to GI50 for human FRDA primary patient fibroblasts; type: cell-based, Fibroblast; conditions: for selectivity ratio: FRDA primary patient fibroblasts, read-out: TI
# Fibroblast [3] = assay: Cytoprotective activity against BSO-induced human FRDA primary patient fibroblasts compound pretreated 12 hrs prior to BSO-induction measured after 48 hrs by calcein-AM-based cell viability assay; type: functional
# [4] = Cmax in dog plasma at 25 mg/kg, po by HPLC analysis; type: ADME, organism-based, Canis lupus familiaris; design: dose 25 mg/kg, route oral
# Fibroblast [5] = assay: Ratio of idebenone EC50 to compound EC50 for cytoprotection against BSO-induced human FRDA primary patient fibroblasts; type: functional
# [6] = Solubility of the compound; type: physicochemical
# [7] = Volume of distribution in mouse plasma at 5 mg/kg, iv by HPLC analysis; type: ADME, organism-based; design: dose 5 mg/kg, route intravenous
# [8] = Half life in mouse plasma at 10 mg/kg, po by HPLC analysis; type: ADME, organism-based; design: dose 10 mg/kg, route oral
# Cytochrome P450 1A2 = target: T1, Cytochrome P450 1A2 (Homo sapiens, UniProt P05177); assay: Inhibition of CYP1A2 at 10 uM; type: ADME
# T1 sequence (P05177 whole entry): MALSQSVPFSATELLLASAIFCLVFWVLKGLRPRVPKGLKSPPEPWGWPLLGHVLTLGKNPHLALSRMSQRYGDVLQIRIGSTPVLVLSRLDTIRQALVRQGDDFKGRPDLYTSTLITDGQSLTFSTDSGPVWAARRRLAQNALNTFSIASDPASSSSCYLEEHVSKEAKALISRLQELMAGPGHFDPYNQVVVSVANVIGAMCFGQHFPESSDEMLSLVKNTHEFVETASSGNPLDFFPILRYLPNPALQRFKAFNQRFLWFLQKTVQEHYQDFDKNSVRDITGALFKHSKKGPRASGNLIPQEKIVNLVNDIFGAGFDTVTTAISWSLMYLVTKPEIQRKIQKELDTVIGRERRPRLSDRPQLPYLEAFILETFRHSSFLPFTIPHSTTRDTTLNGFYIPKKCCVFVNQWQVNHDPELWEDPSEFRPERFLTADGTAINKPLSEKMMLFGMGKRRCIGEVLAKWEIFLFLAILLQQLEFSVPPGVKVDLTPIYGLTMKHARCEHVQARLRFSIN
# Cytochrome P450 2D6 = Cytochrome P450 2D6 (Homo sapiens, UniProt P10635); assay: Inhibition of CYP2D6 at 10 uM; type: ADME
# Fibroblast [9] = assay: Ratio of CoQ10 EC50 to compound EC50 for cytoprotection against BSO-induced human FRDA primary patient fibroblasts; type: functional
# Cytochrome P450 3A4 = Cytochrome P450 3A4 (Homo sapiens, UniProt P08684); assay: Inhibition of […] at 10 uM; type: ADME
# [10] = Tmax in dog plasma at 25 mg/kg, po by HPLC analysis; type: ADME, organism-based, Canis lupus familiaris; design: dose 25 mg/kg, route oral
# [11] = Half life in mouse plasma at 5 mg/kg, iv by HPLC analysis; type: ADME, organism-based; design: dose 5 mg/kg, route intravenous
# Cytochrome P450 2C19 = Cytochrome P450 2C19 (Homo sapiens, UniProt P33261); assay: Inhibition of CYP2C19 at 10 uM; type: ADME
# [12] = AUCt in dog plasma at 25 mg/kg, po by HPLC analysis; type: ADME, organism-based, Canis lupus familiaris; design: dose 25 mg/kg, route oral
# Rattus norvegicus [13] = assay: Toxicity in Wistar rat assessed as changes in water intake up to 2000 mg/kg, qd for 14 days; type: organism-based; design: dose 2000 mg/kg; conditions: in vivo, 336 h
# Cytochrome P450 2C9 = Cytochrome P450 2C9 (Homo sapiens, UniProt P11712); assay: Inhibition of CYP2C9 at 10 uM; type: ADME
# Rattus norvegicus [14] = organism: Rattus norvegicus; assay: Prolongation of partial thromboplastin time in male Wistar rat; type: ADME, organism-based; conditions: in vivo
# [15] = Half life in dog plasma at 25 mg/kg, po by HPLC analysis; type: ADME, organism-based, Canis lupus familiaris; design: dose 25 mg/kg, route oral
# CHO = assay: Induction of micronucleation in CHO cells; type: cell-based, Cricetulus griseus; conditions: chinese hamster
# [16] = Growth inhibition of human primary fibroblasts after 48 hrs by calcein-AM-based cell viability assay; design: species or system Fibroblast
# Rattus norvegicus [17] = assay: Toxicity in Wistar rat assessed as changes in food intake up to 2000 mg/kg, qd for 14 days; type: organism-based; design: dose 2000 mg/kg; conditions: in vivo, 336 h
# [18] = Clearance in mouse plasma at 5 mg/kg, iv by HPLC analysis; type: ADME, organism-based; design: dose 5 mg/kg, route intravenous
# [19] = AUC (0 to infinity) in dog plasma at 25 mg/kg, po by HPLC analysis; type: ADME, organism-based, Canis lupus familiaris; design: time infinity, dose 25 mg/kg, route oral
# [20] = AUC (0 to infinity) in mouse plasma at 5 mg/kg, iv by HPLC analysis; type: ADME, organism-based; design: time infinity, dose 5 mg/kg, route intravenous
# [21] = AUCt in mouse plasma at 10 mg/kg, po by HPLC analysis; type: ADME, organism-based; design: dose 10 mg/kg, route oral
# [22] = Tmax in rat plasma at 100 mg/kg, po by HPLC analysis; type: ADME, organism-based; design: dose 100 mg/kg, route oral
# Rattus norvegicus [23] = assay: Toxicity in Wistar rat assessed as changes in body weight up to 2000 mg/kg, qd for 14 days; type: organism-based; design: dose 2000 mg/kg; conditions: in vivo, 336 h
# [24] = Cmax in mouse plasma at 10 mg/kg, po by HPLC analysis; type: ADME, organism-based; design: dose 10 mg/kg, route oral
# [25] = Tmax in mouse plasma at 10 mg/kg, po by HPLC analysis; type: ADME, organism-based; design: dose 10 mg/kg, route oral
# [26] = AUC (0 to infinity) in rat plasma at 100 mg/kg, po by HPLC analysis; type: ADME, organism-based; design: time infinity, dose 100 mg/kg, route oral
# [27] = Half life in rat plasma at 100 mg/kg, po by HPLC analysis; type: ADME, organism-based; design: dose 100 mg/kg, route oral
# Rattus norvegicus [28] = organism: Rattus norvegicus; assay: Prolongation of partial thromboplastin time in female Wistar rat; type: ADME, organism-based; conditions: in vivo
# [29] = Cmax in rat plasma at 100 mg/kg, po by HPLC analysis; type: ADME, organism-based; design: dose 100 mg/kg, route oral
# [30] = AUCt in rat plasma at 100 mg/kg, po by HPLC analysis; type: ADME, organism-based; design: dose 100 mg/kg, route oral
# Fibroblast [31] = assay: Ratio of alpha-tocopherol EC50 to compound EC50 for cytoprotection against BSO-induced human FRDA primary patient fibroblasts; type: functional
# [32] = Oral bioavailability in mouse plasma at 10 mg/kg by HPLC analysis; type: ADME, organism-based
# Salmonella typhimurium = assay: Mutagenic activity in Salmonella Typhimurium by Ames test; type: toxicity, organism-based; conditions: salmonella enterica subsp. enterica serovar typhimurium
# [33] = AUCt in mouse plasma at 5 mg/kg, iv by HPLC analysis; type: ADME, organism-based; design: dose 5 mg/kg, route intravenous
# [34] = AUC (0 to infinity) in mouse plasma at 10 mg/kg, po by HPLC analysis; type: ADME, organism-based; design: time infinity, dose 10 mg/kg, route oral
# Chain of Cytochrome P450 2C19 (P33261 whole entry): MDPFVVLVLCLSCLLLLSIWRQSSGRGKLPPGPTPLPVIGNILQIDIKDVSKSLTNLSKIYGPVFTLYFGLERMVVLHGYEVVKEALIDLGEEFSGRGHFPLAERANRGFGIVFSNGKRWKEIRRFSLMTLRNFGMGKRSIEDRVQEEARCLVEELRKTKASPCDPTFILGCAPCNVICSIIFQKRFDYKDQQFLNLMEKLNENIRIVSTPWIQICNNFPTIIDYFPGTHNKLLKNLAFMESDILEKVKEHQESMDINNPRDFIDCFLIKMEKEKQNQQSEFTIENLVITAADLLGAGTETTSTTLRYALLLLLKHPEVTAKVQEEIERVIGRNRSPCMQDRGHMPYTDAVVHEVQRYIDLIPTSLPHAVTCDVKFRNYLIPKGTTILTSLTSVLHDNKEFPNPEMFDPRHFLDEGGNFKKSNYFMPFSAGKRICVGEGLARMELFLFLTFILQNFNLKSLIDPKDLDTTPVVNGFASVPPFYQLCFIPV
# Chain of Cytochrome P450 2D6 (P10635 whole entry): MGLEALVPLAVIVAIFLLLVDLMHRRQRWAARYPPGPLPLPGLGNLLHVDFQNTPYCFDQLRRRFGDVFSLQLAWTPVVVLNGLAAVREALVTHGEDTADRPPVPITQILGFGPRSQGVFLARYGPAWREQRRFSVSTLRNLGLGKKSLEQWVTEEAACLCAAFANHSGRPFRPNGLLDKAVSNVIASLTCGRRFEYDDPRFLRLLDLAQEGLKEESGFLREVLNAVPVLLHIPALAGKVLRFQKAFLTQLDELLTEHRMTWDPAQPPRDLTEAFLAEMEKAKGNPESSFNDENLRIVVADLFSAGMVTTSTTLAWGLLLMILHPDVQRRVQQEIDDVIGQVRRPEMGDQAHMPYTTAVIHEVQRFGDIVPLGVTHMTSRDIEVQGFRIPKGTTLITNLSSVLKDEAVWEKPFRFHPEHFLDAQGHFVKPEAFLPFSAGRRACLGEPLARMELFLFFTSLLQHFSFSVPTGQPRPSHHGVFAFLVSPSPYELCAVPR
# Chain of Cytochrome P450 3A4 (P08684 whole entry): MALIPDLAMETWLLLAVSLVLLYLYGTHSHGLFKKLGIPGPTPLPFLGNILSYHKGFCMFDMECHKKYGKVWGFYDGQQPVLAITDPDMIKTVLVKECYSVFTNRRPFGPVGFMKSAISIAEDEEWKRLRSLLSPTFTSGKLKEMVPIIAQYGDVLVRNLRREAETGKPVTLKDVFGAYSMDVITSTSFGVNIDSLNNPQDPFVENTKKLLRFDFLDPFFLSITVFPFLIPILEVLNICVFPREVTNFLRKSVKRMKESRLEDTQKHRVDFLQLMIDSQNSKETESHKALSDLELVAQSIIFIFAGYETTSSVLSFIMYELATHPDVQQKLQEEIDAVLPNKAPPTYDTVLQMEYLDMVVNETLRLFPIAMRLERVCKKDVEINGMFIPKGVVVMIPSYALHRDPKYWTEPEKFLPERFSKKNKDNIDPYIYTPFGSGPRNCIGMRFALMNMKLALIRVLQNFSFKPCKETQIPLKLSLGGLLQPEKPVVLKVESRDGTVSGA
# Chain of Cytochrome P450 2C9 (P11712 whole entry): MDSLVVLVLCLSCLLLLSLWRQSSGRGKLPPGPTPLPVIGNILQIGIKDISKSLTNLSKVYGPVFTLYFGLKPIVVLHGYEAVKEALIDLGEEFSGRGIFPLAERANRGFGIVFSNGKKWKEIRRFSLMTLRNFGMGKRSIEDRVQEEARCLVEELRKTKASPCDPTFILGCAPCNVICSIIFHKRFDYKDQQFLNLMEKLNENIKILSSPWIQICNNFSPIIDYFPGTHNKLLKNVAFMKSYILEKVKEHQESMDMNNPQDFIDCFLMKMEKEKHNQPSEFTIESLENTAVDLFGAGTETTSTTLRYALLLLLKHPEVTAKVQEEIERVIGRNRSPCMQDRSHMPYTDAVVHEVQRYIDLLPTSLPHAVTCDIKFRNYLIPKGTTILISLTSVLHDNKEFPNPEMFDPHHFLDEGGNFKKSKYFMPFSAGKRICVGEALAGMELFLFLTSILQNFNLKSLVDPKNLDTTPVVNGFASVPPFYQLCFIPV
compound,measurement,setting,value
COC1=C(OC)C(=O)C(C/C=C(\C)CC/C=C(\C)CC/C=C(\C)CC/C=C(\C)CC/C=C(\C)CC/C=C(\C)CC/C=C(\C)CC/C=C(\C)CC/C=C(\C)CCC=C(C)C)=C(C)C1=O [UBIDECARENONE],GI50 at 48 h,[1],220 µM
VITAMIN E,TI,[2]; fibroblast,>= 1282
same,EC50,Fibroblast [3]; fibroblast,0.234 µM
same,GI50,"[1]; fibroblast, 48 h",≥ 300 µM
COC1=C(OC)C(=O)C(CCCCCCCCCCO)=C(C)C1=O [IDEBENONE],selectivity ratio,[2],165
same,EC50,"Fibroblast [3]; Homo sapiens, Fibroblast",0.592 µM
same,GI50 at 48 h,[1],98 µM
CC1=C(C)C(=O)C(CC[C@](C)(O)CCC[C@H](C)CCC[C@H](C)CCCC(C)C)=C(C)C1=O,Cmax,[4],2370 ng/mL
same,Ratio EC50,Fibroblast [5],35
same,solubility,[6],10 µM
same,Vd,[7],27.6 L/kg
same,half-life,[8],5.8 h
same,inhibition (INH),Cytochrome P450 1A2,Not Active
same,inhibition (INH),Cytochrome P450 2D6,Not Active
same,Ratio EC50,Fibroblast [9],200
same,inhibition (INH),Cytochrome P450 3A4,Not Active
same,Tmax,[10],2 h
same,selectivity ratio,[2],≥ 8330
same,half-life,[11],16.2 h
same,inhibition (INH),Cytochrome P450 2C19,Not Active
same,AUC(0-t),[12],14200 ng·h/mL
same,Activity,Rattus norvegicus [13],Non-toxic
same,inhibition (INH),Cytochrome P450 2C9,Not Active
same,Activity,Rattus norvegicus [14],Dose-dependent effect
same,half-life,[15],23.7 h
same,Activity,CHO,Non-toxic
same,GI50 at 48 h,[16],≥ 300 µM
same,Activity,Rattus norvegicus [17],Non-toxic
same,clearance,[18],20 mL/min/kg
same,AUC(0-inf),[19],16800 ng·h/mL
same,AUC(0-inf),[20],4240 ng·h/mL
same,AUC(0-t),[21],1980 ng·h/mL
same,Tmax,[22],4 h
same,Activity,Rattus norvegicus [23],Non-toxic
same,Cmax,[24],519 ng/mL
same,Activity,Fibroblast [3],Dose-dependent effect
same,EC50,"Fibroblast [3]; Homo sapiens, Fibroblast",0.036 µM
same,Tmax,[25],1 h
same,AUC(0-inf),[26],27900 ng·h/mL
same,half-life,[27],16.6 h
same,Activity,Rattus norvegicus [28],Dose-dependent effect
same,Cmax,[29],3010 ng/mL
same,GI50 at 48 h,[1],≥ 300 µM
same,AUC(0-t),[30],26400 ng·h/mL
same,Ratio EC50,Fibroblast [31],7
same,bioavailability,[32],24%
same,Activity,Salmonella typhimurium,Non-toxic
same,AUC(0-t),[33],3980 ng·h/mL
same,AUC(0-inf),[34],2070 ng·h/mL
